Results reported in patent publication US8871288B2, “Aromatic neomenthylamides as flavoring substances” (Symrise AG, priority 2007, dated 2014).

Legend:
[1] = Flavor impression of the individual compounds; type: in vivo; details: tasting of the compound as such
[2] = cited from earlier work; for sensorial impression: prior art (US 2004/0202760, US 2004/0202619, US 2006/057268, 2006/068071); for effect in the oral cavity: known naturally occurring alkamides
[3] = Flavor comparison in American beef bouillon base with MSG, panel of trained testers (FIG. 1); type: in vivo; details: 5 ppm of 1:1 mixture in American beef bouillon base vs base with 0.05% by weight MSG
Method: This is also shown by the spider diagram which is appended as FIG. 1 and in which an American beef bouillon as a base is compared (i) to a base of the type to which 5 ppm of a 1:1 mixture of benzo[1,3]dioxol-5-carboxylic acid ((1S,2S,5R)-2-isopropyl-5-methylcyclohexyl)amide (3) and benzo[1,3]dioxol-5-carboxylic acid ((1R,2R,5S)-2-isopropyl-5-methylcyclohexyl)amide (4) are added and (ii) to a base of the type to which 0.05% by weight of MSG (sodium glutamate) is added.
The flavor of a 0.5% American beef extract as a base (solid, light line) was compared, based on a tasting performed by a panel of trained testers, with the flavor firstly of a base of this type to which 5 ppm of a mixture of benzo[1,3]dioxol-5-carboxylic acid ((1S,2S,5R)-2-isopropyl-5-methylcyclohexyl)amide (3) and benzo[1,3]dioxol-5-carboxylic acid ((1R,2R,5S)-2-isopropyl-5-methylcyclohexyl)amide (4) were added (solid, dark line), and secondly of a base of this type to which 0.05% by weight of MSG was added (dotted line).
The testers judged the […] of the specified types of flavor in each case by awarding scores on a scale of from 0 (no corresponding flavor) to 6 (very strong corresponding flavor). The average values of the respective scores are shown.

[4] = Panel tasting, green tea drink (Application Example 11); type: in vivo; details: 0.004% by weight of a 1% solution in propylene glycol in green tea drink, sterilized at 118° C.
Method: The green tea concentrate is mixed with a 1% solution of a 1:1 mixture of the compounds (3)+(4) in propylene glycol. Afterwards, demineralized water is poured in and the mixture is again thoroughly stirred. Then the product is filtered, packed ready for consumption and sterilized at 118° C.

Molecule	flavor impression [1]	sensorial impression [2]	other results
COC(=O)c1ccc(C(=O)N[C@H]2C[C@H](C)CC[C@H]2C(C)C)cc1 [(1), N-((1S,2S,5R)-2-isopropyl-5-methylcyclohexyl)terephthalic acid methyl ester]	umami flavor without very bitter accompanying notes	–	–
COC(=O)c1ccc(C(=O)N[C@@H]2C[C@@H](C)CC[C@@H]2C(C)C)cc1 [(2), N-((1R,2R,5S)-2-isopropyl-5-methylcyclohexyl)terephthalic acid methyl ester]	umami flavor without very bitter accompanying notes	–	–
CC(C)[C@@H]1CC[C@@H](C)C[C@@H]1NC(=O)c1ccc2c(c1)OCO2 [(3), benzo[1,3]dioxol-5-carboxylic acid ((1S,2S,5R)-2-isopropyl-5-methylcyclohexyl)amide]	very strong umami flavor	–	–
CC(C)[C@H]1CC[C@H](C)C[C@H]1NC(=O)c1ccc2c(c1)OCO2 [(4), benzo[1,3]dioxol-5-carboxylic acid ((1R,2R,5S)-2-isopropyl-5-methylcyclohexyl)amide]	very strong umami flavor	–	–
CC(C)[C@@H]1CC[C@@H](C)C[C@@H]1NC(=O)Cc1ccc2c(c1)OCO2 [(5), 2-benzo[1,3]dioxol-5-yl-N-((1S,2S,5R)-2-isopropyl-5-methylcyclohexyl)acetamide]	in addition to an umami flavor, a slightly salty note	–	–
CC(C)[C@H]1CC[C@H](C)C[C@H]1NC(=O)Cc1ccc2c(c1)OCO2 [(6), 2-benzo[1,3]dioxol-5-yl-N-((1R,2R,5S)-2-isopropyl-5-methylcyclohexyl)acetamide]	in addition to an umami flavor, a slightly salty note	–	–
CC(C)=CCCC(C)=CCNC(=O)C1CC1 [N-3,7-dimethyl-2,6-octadienyl cyclopropylcarboxamide]	–	salt and umami intensifier	–
CC/C=C\CC/C=C/C(=O)NC1CC1 [N-cyclopropyl-E2,Z6-nonadienamide]	–	MSG-like effect	–
CCCCC/C=C\CC/C=C/C(=O)NCC [N-ethyl-E2,Z6-dodecadienamide]	–	MSG-like effect	–
CC/C=C\CC/C=C/C(=O)NCC [N-ethyl-E2,Z6-nonadienamide]	–	MSG-like effect	–
CCCCC/C=C/C=C/C(=O)NCC(C)C [pellitorine]	–	–	effect in the oral cavity [2]: a salivatory and tingling effect, a long-lasting and numbing effect in the oral cavity
C/C=C/C=C\CC/C=C/C(=O)NCC(C)C [spilanthol]	–	–	effect in the oral cavity [2]: a salivatory and tingling effect, a long-lasting and numbing effect in the oral cavity
Benzo[1,3]dioxole-5-carboxylic acid((1S,2S,5R)-2-isopropyl-5-methylcyclohexyl)amide (3)/benzo[1,3]dioxole-5-carboxylic acid((1R,2R,5S)-2-isopropyl-5-methylcyclohexyl)amide (4) [1:1 mixture of the compounds (3)+(4)]	–	–	flavor compared to other umami-tasting compounds and to sodium glutamate (MSG) [3]: clear umami flavor which is very similar to sodium glutamate (MSG); taste compared to the non-aromatized green tea base [4]: clearly preferable
